# Legend:
# hERα D351Y = biological target: T1, hERα D351Y (Homo sapiens, UniProt P03372, D351Y); test: Transient transfection reporter assay with hERα D351Y mutant; type: cell-based
# T1 construct: mammalian expression plasmid containing full length human ER cDNA, pCMV-hER; expressed in transfected cells
# T1 sequence (P03372 1-595 D351Y): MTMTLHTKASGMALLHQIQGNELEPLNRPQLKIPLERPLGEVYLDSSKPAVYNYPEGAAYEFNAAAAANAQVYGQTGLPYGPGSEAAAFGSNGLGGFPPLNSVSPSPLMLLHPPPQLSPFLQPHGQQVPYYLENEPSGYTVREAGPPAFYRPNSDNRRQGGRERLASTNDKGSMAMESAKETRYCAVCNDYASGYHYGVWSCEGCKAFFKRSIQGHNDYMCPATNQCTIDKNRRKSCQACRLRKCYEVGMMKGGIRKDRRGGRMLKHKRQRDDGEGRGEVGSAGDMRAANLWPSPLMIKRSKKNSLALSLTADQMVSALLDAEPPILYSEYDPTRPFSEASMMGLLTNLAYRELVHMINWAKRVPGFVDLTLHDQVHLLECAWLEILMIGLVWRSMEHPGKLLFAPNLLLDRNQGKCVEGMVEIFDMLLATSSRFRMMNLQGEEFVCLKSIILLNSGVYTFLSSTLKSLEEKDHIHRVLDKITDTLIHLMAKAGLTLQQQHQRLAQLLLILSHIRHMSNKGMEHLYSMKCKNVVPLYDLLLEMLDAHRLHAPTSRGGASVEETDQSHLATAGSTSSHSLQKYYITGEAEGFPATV
# Procedure: The tyrosine mutation (pCMV-D351Y) at amino acid 351 was introduced by using the Quick Change Site-Directed Mutagenesis Kit (Stratagene, La Jolla, Calif.) and pCMV-ER was used as the template. The primers constructed were as follows: 5′ primer (5′-[…]-3′) (SEQ ID NO. 9), the underlined nucleotide was changed to make the D351Y mutation) and a 3′ primer (5′-[…]-3′) (SEQ ID NO. 10).
# For the transient transfection reporter assays, the cells were plated in triplicate in 12-well plates at a density of 300000 cells/well in the phenol red-free DMEM (GIBCO/BRL, Grand Island, N.Y.) supplemented with 10% charcoal-stripped fetal bovine serum (Hyclone, Logan, Utah), Penicillin (100 unit/ml)/Streptomycin ([…]), 2 mML-glutamine and 1 mM sodium Pyruvate. 24 hrs later, the cells were transfected with three plasmids by using Superfect transfection kit (Qiagen, Valencia, Calif.). For the detection of hER activity, cells were transfected with 2 g hER expression plasmid (pCMV-ER ), 6 g luciferase reporter plasmid containing estrogen receptor response element (PGL-TATA-Luc), and 600 ng normalization control, β-galactosidase reporter plasmid (pCMV ). For the detection of hER activity, cells were transfected with 3 ug hER expression plasmid (pcDNA3.1-hER), 6 g luciferase reporter plasmid containing estrogen receptor response element (PGL-TATA-Luc), and 600 ng pCMV. For determining the influence of ER's major coactivator in breast, AIB 1, 2 g pcDNA3.1-AIB1 was added into the transfection plasmid solution mentioned previously.
# The transfected cells were rinsed with PBS and treated with various concentrations of test molecules and one […] (vehicle, DMSO or methanol) in phenol red-free culture medium. After incubation for further 24 hrs, the cells were washed with PBS and lysed with lysis buffer (Pierce, Rockford, Ill.). The lysate was used to determine the luciferase activity for ER's activity and the β-galactosidase activity for the normalization of transfection efficiency.
# For the luciferase activity assay, 20 μl of lysate and 100 μl luciferase assay buffer (Promega, Madison, Wis.) were added into a well of 96-well plate. The luminescence was detected by using luminescence microplate reader, LumiCount (Packard, Boston, Mass.). For the β-galactosidase activity assay, […] β-galactosidase assay buffer (Clontech, Palo Alto, Calif.) were added into a well of 96-well plate. The β-galactosidase activity was measured as luminescence strength by using luminescence microplate reader, LumiCount (Packard, Boston, Mass.). The normalized reporter activity was calculated by the luciferase activity divided by that of β-galactosidase.
# Amino acid 351 (D351) of hERα plays an essential role in regulating estrogenic or antiestrogenic compound's binding to hERα and the recruitment of corepressors. […] Based on this observation the hERα D351Y mutant is generated by PCR-based site directed mutagenesis method for use in the transient transfection reporter assay. The main goal of this testing is to elucidate the existence of the pure antiestrogenic property of the compounds of the invention and to determine whether the compounds estrogenic activity will increase due to the presence of hERα D351Y or not.
# In this assay, DMSO was used as reference.
# hER = test: Fluorescence-based competitive binding assay for hER (displacement of fluormone ES2); parameters: species or system human; settings: for Relative Binding Affinity: RBA = IC50 of tamoxifen/IC50 of test molecule, tamoxifen set at 1
# Procedure: The estrogen receptor competitor assay kits (Panvera, Madison, Wis.) were used to determine the ability of test molecules to displace the fluormone, ES2, from hER -ES2 or hER -ES2 complex. Serial dilutions of each test molecule were prepared in methanol or DMSO. The recombinant hER or hER (7 nM) was preincubated with ES2 (1 nM) in screening buffer. After the preincubation, the test molecules and ER-ES2 complex solution were added into the 96-well microplate to produce a final volume of 100 μl per well. The reaction was incubated at room temperature for 1 hr and the polarization values were measured by using fluorescence microplate reader, Polarion (Tecan, Research Triangle Park, N.C.) with excitation wavelength 495 nm and emission wavelength 535 nm. The polarization value versus test molecule concentration curves was analyzed by graphfit software to generate IC50 values.
# In this assay, recombinant hER and the commercial synthetic estrogen, ES2 containing fluorescence polarization property, are used. This assay is a homogenous assay. When the assay solution only contains ES2, the solution exerts weak fluorescence polarization property due to the quick rotation of free ES2 molecule. […] Addition of the antiestrogen to the ES2/hER displaces ES2 from hER and results in the whole solution exerting less fluorescence polarization property than the solution without antiestrogen.
# MDA-MB-231 cells = test: hER negative breast cancer cell proliferation assay; type: cell-based, human; settings: hER negative cell line
# Procedure: MCF-7 or MDA-MB-231 cells were inoculated into 12-well culture plates at 10000 cells in 2 ml maintained medium per well. Cells were allowed to attach to the bottom for 24 hrs incubation, then the seeding medium was removed and replaced by the experimental medium (phenol red-free DMEM supplemented with 5% charcoal-stripped fetal bovine serum and Penicillin (100 unit/ml)/Streptomycin ([…])). After 24 hr incubation, the test molecules dissolved in DMSO were added in the wells. […] The culture was continued for 3 days and the medium and tested compounds were replaced every two days. The final cell numbers were estimated with CellTiter proliferation assay kit (Promega, Madison, Wis.) by measuring the absorbance at 570 nm, which is directly proportional to the number of living cells in the culture.
# In this assay, MDA-MB-231 breast cancer cell line, a hER negative cell line, was used. DMSO was used as reference.
estrogenic activity against hERα D351Y compared with hERα wild type (FIG. 5) (hERα D351Y),estrogenic effects against mutant hERα D351Y compared with DMSO (FIG. 5) (hERα D351Y),Relative Binding Affinity (hER),SMILES,"proliferation effects against MDA-MB-231 cells (FIG. 6, words) (MDA-MB-231 cells)",binding affinity for hER compared with tamoxifen (hER)
do not increase,even lower than that of DMSO,0.192,CCCCNC(=O)CCCCCCCCCCOCC1Cc2ccccc2CN1C(=O)c1cccc(OC)c1 (stereo not shown) [Compound 4],do not inhibit or stimulate the growth,–
do not increase,even lower than that of DMSO,5.0,CCCCNC(=O)CCCCCCCCCCOCC1Cc2ccccc2CN1C(=O)c1cccc(O)c1 (stereo not shown) [Compound 6],do not inhibit or stimulate the growth,highest binding affinity and higher than tamoxifen
do not increase,even lower than that of DMSO,1.79,CCCCNC(=O)CCCCCCCCCCOCC1Cc2ccccc2CN1C(=O)c1ccc(O)cc1 (stereo not shown) [Compound 7],–,highest binding affinity and higher than tamoxifen

# Source: patent publication US7601739B2, “Compounds having antiestrogenic and tissue selective estrogenic properties, and compounds with anti-androgenic properties for treatment of prostate cancer and androgen receptor dependent diseases” (Virgina Commonwealth University, priority 2006, dated 2009)
